Source: patent publication US20230278972A1, “SUBSTITUTED HALOALKYL SULFONANILIDE HERBICIDES” (FMC Corporation, priority 2020, published 2023)

What was measured:
Type in all cases: in vivo
[1] = tested on: barnyardgrass (Echinochloa crus-galli); experiment: Test A preemergence, barnyardgrass; conditions: Preemergence; for Barnyardgrass plant response rating: 125 g ai/ha, visual injury on 0 to 100 scale (0 no effect, 100 complete control), approximately 10 days; for Plant response rating, Barnyardgrass: 0 to 100 scale (0 no effect, 100 complete control)
Outline: (§1)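 After sowing into a sand-amended loam, pots for the preemergence test were treated by spraying directly onto soil. In parallel, seedlings at the one- to two-leaf stage and 2 to 10 cm tall were treated postemergence with the identical surfactant-containing formulation.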

kochia (Bassia scoparia) [2] = experiment: Test A preemergence, kochia; conditions: Preemergence; for Kochia plant response rating: 125 g ai/ha, visual injury on 0 to 100 scale (0 no effect, 100 complete control), approximately 10 days; for Plant response rating, Kochia: 0 to 100 scale (0 no effect, 100 complete control)
Outline: as §1

[3] = tested on: ragweed (common ragweed, Ambrosia artemisiifolia); experiment: Test A preemergence, ragweed; conditions: Preemergence; for Ragweed plant response rating: 125 g ai/ha, visual injury on 0 to 100 scale (0 no effect, 100 complete control), approximately 10 days; for Plant response rating, Ragweed: 500 g ai/ha, 0 to 100 scale (0 no effect, 100 complete control)
Outline: as §1

[4] = tested on: Ryegrass, Italian (Italian ryegrass, Lolium multiflorum); experiment: Test A preemergence, Ryegrass, Italian; conditions: Preemergence; for Ryegrass, Italian plant response rating: 125 g ai/ha, visual injury on 0 to 100 scale (0 no effect, 100 complete control), approximately 10 days; for Plant response rating, Ryegrass, Italian: 0 to 100 scale (0 no effect, 100 complete control)
Outline: as §1

[5] = tested on: Foxtail, Giant (giant foxtail, Setaria faberi); experiment: Test A preemergence, Foxtail, Giant; conditions: Preemergence; for Foxtail, Giant plant response rating: 125 g ai/ha, visual injury on 0 to 100 scale (0 no effect, 100 complete control), approximately 10 days; for Plant response rating, Foxtail, Giant: 0 to 100 scale (0 no effect, 100 complete control)
Outline: as §1

[6] = tested on: pigweed (Amaranthus retroflexus); experiment: Test A preemergence, pigweed; conditions: for Pigweed plant response rating: 125 g ai/ha, visual injury on 0 to 100 scale (0 no effect, 100 complete control), approximately 10 days; for Plant response rating, Pigweed: 0 to 100 scale (0 no effect, 100 complete control)
Outline: (§2)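 Compounds in non-phytotoxic solvent with surfactant. Soil: loam/sand. Preemergence via directed soil spray after seeding; postemergence on seedlings 2–10 cm, one- to two-leaf.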

[7] = tested on: barnyardgrass (Echinochloa crus-galli); experiment: Test A postemergence, barnyardgrass; conditions: Postemergence, 0 to 100 scale (0 no effect, 100 complete control); for Barnyardgrass plant response rating: visual injury vs untreated controls after approx. 10 days
Outline: as §2

kochia (Bassia scoparia) [8] = experiment: Test A postemergence, kochia; conditions: Postemergence, 0 to 100 scale (0 no effect, 100 complete control); for Kochia plant response rating: visual injury vs untreated controls after approx. 10 days
Outline: as §1

[9] = tested on: ragweed (common ragweed, Ambrosia artemisiifolia); experiment: Test A postemergence, ragweed; conditions: Postemergence, 0 to 100 scale (0 no effect, 100 complete control); for Ragweed plant response rating: visual injury vs untreated controls after approx. 10 days
Outline: as §1

[10] = tested on: Ryegrass, Italian (Italian ryegrass, Lolium multiflorum); experiment: Test A postemergence, Ryegrass, Italian; conditions: Postemergence, 0 to 100 scale (0 no effect, 100 complete control); for Ryegrass, Italian plant response rating: visual injury vs untreated controls after approx. 10 days
Outline: as §1

[11] = tested on: Foxtail, Giant (giant foxtail, Setaria faberi); experiment: Test A postemergence, Foxtail, Giant; conditions: Postemergence, 0 to 100 scale (0 no effect, 100 complete control); for Foxtail, Giant plant response rating: visual injury vs untreated controls after approx. 10 days
Outline: as §1

[12] = tested on: pigweed (Amaranthus retroflexus); experiment: Test A postemergence, pigweed; conditions: Postemergence, 0 to 100 scale (0 no effect, 100 complete control); for Pigweed plant response rating: visual injury vs untreated controls after approx. 10 days
Outline: as §1

[13] = tested on: wheat (Triticum aestivum); experiment: Test A postemergence, wheat; conditions: Postemergence, 0 to 100 scale (0 no effect, 100 complete control); for Wheat plant response rating: visual injury vs untreated controls after approx. 10 days
Outline: as §2

corn (Zea mays) = experiment: Test A postemergence, corn; conditions: Postemergence, 0 to 100 scale (0 no effect, 100 complete control); for Corn plant response rating: visual injury vs untreated controls after approx. 10 days
Outline: as §1

[14] = tested on: blackgrass (Alopecurus myosuroides); experiment: Test A postemergence, blackgrass; conditions: Postemergence, 0 to 100 scale (0 no effect, 100 complete control); for Blackgrass plant response rating: visual injury vs untreated controls after approx. 10 days
Outline: as §1

[15] = tested on: galium (catchweed bedstraw, Galium aparine); experiment: Test A postemergence, galium; conditions: Postemergence, 0 to 100 scale (0 no effect, 100 complete control); for Galium plant response rating: visual injury vs untreated controls after approx. 10 days
Outline: as §2

[16] = 125 g ai/ha, visual injury approx. 10 days
[17] = 500 g ai/ha, visual injury, approx. 10 days
[18] = 1000 g ai/ha, visual injury, approx. 10 days

Compound | Barnyardgrass plant response rating [1] | Plant response rating, Barnyardgrass ([1]; 500 g ai/ha) | Kochia plant response rating (kochia (Bassia scoparia) [2]) | Plant response rating, Kochia (kochia (Bassia scoparia) [2]; 500 g ai/ha) | Ryegrass, Italian plant response rating [4] | Plant response rating, Ryegrass, Italian ([4]; 500 g ai/ha) | Foxtail, Giant plant response rating [5] | Plant response rating, Foxtail, Giant ([5]; 500 g ai/ha) | Pigweed plant response rating [6] | Plant response rating, Pigweed ([6]; 500 g ai/ha) | Plant response rating, Barnyardgrass [7, 16] | Plant response rating, Kochia (kochia (Bassia scoparia) [8]; [16]) | Plant response rating, Ragweed [9, 16] | Plant response rating, Ryegrass, Italian [10, 16] | Plant response rating, Foxtail, Giant [11, 16] | Plant response rating, Pigweed [12, 16] | Plant response rating, Wheat [13, 16] | Plant response rating, Corn (corn (Zea mays); [16]) | Plant response rating, Blackgrass [14, 16] | Plant response rating, Galium [15, 16] | further results
Cc1cc(C)c(C2=NOC3CCCCC23)cc1NS(=O)(=O)C(F)(F)F (racemic) [Compound 125] | 100 | 100 | 90 | 100 | 100 | 100 | 100 | 100 | 100 | 100 | 80 | 70 | 60 | 0 | 20 | 60 | 30 | 0 | 10 | 90 | Ragweed plant response rating [3]: 60; Plant response rating, Ragweed [3]: 80; Barnyardgrass plant response rating ([7]; 500 g ai/ha): 90; Kochia plant response rating (kochia (Bassia scoparia) [8]; 500 g ai/ha): 80; Ragweed plant response rating ([9]; 500 g ai/ha): 80; Ryegrass, Italian plant response rating ([10]; 500 g ai/ha): 70; Foxtail, Giant plant response rating ([11]; 500 g ai/ha): 50; Pigweed plant response rating ([12]; 500 g ai/ha): 90; Wheat plant response rating ([13]; 500 g ai/ha): 70; Corn plant response rating (corn (Zea mays); 500 g ai/ha): 60; Blackgrass plant response rating ([14]; 500 g ai/ha): 60; Galium plant response rating ([15]; 500 g ai/ha): 90
CC(=O)OCN(c1cc(C2=NO[C@@H]3CCC[C@H]23)c(C)cc1C)S(=O)(=O)C(F)(F)F (relative stereo) [Compound 102] | 80 | 100 | 70 | 90 | 90 | 90 | 80 | 90 | 100 | 100 | 90 | 70 | 70 | 80 | 30 | 70 | 40 | 10 | 0 | 100 | Ragweed plant response rating [3]: 20; Plant response rating, Ragweed [3]: 70; Barnyardgrass plant response rating ([7]; 500 g ai/ha): 90; Kochia plant response rating (kochia (Bassia scoparia) [8]; 500 g ai/ha): 90; Ragweed plant response rating ([9]; 500 g ai/ha): 90; Ryegrass, Italian plant response rating ([10]; 500 g ai/ha): 90; Foxtail, Giant plant response rating ([11]; 500 g ai/ha): 70; Pigweed plant response rating ([12]; 500 g ai/ha): 80; Wheat plant response rating ([13]; 500 g ai/ha): 80; Corn plant response rating (corn (Zea mays); 500 g ai/ha): 30; Blackgrass plant response rating ([14]; 500 g ai/ha): 0; Galium plant response rating ([15]; 500 g ai/ha): 100
O=C(c1ccc(Cl)c(NS(=O)(=O)C(F)(F)F)c1)N1CCOCC1 [Compound 15] | 0 | 0 | 0 | 80 | 30 | 30 | 10 | 70 | 60 | 70 | 0 | 40 | 70 | 30 | 0 | 0 | 0 | 0 | 0 | 50 | Plant response rating, Barnyardgrass [7, 17]: 50; Plant response rating, Kochia (kochia (Bassia scoparia) [8]; [17]): 70; Plant response rating, Ragweed [9, 17]: 80; Plant response rating, Ryegrass, Italian [10, 17]: 0; Plant response rating, Foxtail, Giant [11, 17]: 50; Plant response rating, Pigweed [12, 17]: 30; Plant response rating, Wheat [13, 17]: 0; Plant response rating, Corn (corn (Zea mays); [17]): 0; Plant response rating, Blackgrass [14, 17]: 30; Plant response rating, Galium [15, 17]: 60
CCN(CC)C(=O)c1cc(NS(=O)(=O)C(F)(F)F)c(Cl)cc1C [Compound 21] | 80 | 100 | 0 | 0 | 30 | 100 | 20 | 100 | 40 | 60 | 20 | 10 | 50 | 0 | 0 | 0 | 0 | 0 | 10 | 50 | Plant response rating, Barnyardgrass [7, 17]: 40; Plant response rating, Kochia (kochia (Bassia scoparia) [8]; [17]): 30; Plant response rating, Ragweed [9, 17]: 90; Plant response rating, Ryegrass, Italian [10, 17]: 50; Plant response rating, Foxtail, Giant [11, 17]: 20; Plant response rating, Pigweed [12, 17]: 40; Plant response rating, Wheat [13, 17]: 30; Plant response rating, Corn (corn (Zea mays); [17]): 30; Plant response rating, Blackgrass [14, 17]: 10; Plant response rating, Galium [15, 17]: 60
Cc1cc(Cl)c(NS(=O)(=O)C(F)(F)F)cc1C(=O)N(C)C [Compound 23] | 90 | 100 | 80 | 80 | 40 | 100 | 70 | 100 | 80 | 100 | 50 | 40 | 80 | 30 | 50 | 70 | 50 | 20 | 30 | 80 | Plant response rating, Barnyardgrass [7, 17]: 70; Plant response rating, Kochia (kochia (Bassia scoparia) [8]; [17]): 70; Plant response rating, Ragweed [9, 17]: 80; Plant response rating, Ryegrass, Italian [10, 17]: 80; Plant response rating, Foxtail, Giant [11, 17]: 90; Plant response rating, Pigweed [12, 17]: 80; Plant response rating, Wheat [13, 17]: 70; Plant response rating, Corn (corn (Zea mays); [17]): 70; Plant response rating, Blackgrass [14, 17]: 30; Plant response rating, Galium [15, 17]: 90
Cc1ccc(C(=O)N2CCC(C(F)(F)F)CC2)cc1NS(=O)(=O)C(F)(F)F [Compound 263] | – | – | – | – | – | – | – | – | – | – | – | – | – | – | – | – | – | – | – | – | Plant response rating, Barnyardgrass ([1]; 1000 g ai/ha): 30; Plant response rating, Kochia (kochia (Bassia scoparia) [2]; 1000 g ai/ha): 20; Plant response rating, Ryegrass, Italian ([4]; 1000 g ai/ha): 50; Plant response rating, Foxtail, Giant ([5]; 1000 g ai/ha): 70; Plant response rating, Pigweed ([6]; 1000 g ai/ha): 60; Plant response rating, Barnyardgrass [7, 18]: 30; Plant response rating, Kochia (kochia (Bassia scoparia) [8]; [18]): 10; Plant response rating, Ragweed [9, 18]: 0; Plant response rating, Ryegrass, Italian [10, 18]: 80; Plant response rating, Foxtail, Giant [11, 18]: 0; Plant response rating, Pigweed [12, 18]: 0; Plant response rating, Wheat [13, 18]: 0; Plant response rating, Corn (corn (Zea mays); [18]): 20; Plant response rating, Blackgrass [14, 18]: 20; Plant response rating, Galium [15, 18]: 60
